Consider 3 compounds from US6251948A, “Tri-and tetra-substituted guanidines and their use as excitatory amino acid antagonists” (State of Oregon, acting by and through the Oregon State …, priority 1995, dated 2001).

Structures can show the parent of a compound that is named as a salt.

Experiment [1] has as its system lesions caused by NMDA injection. Briefly: In vivo neurotoxicity assay: NMDA-induced lesion (model of McDonald et al.). Also on record: species or system rat. As to conditions: 0.1 to 100 umol/kg of body weight; intraperitoneal, 15 minutes following cerebral NMDA injection. The source says: In the in vivo neurotoxicity studies, the experimental model of McDonald, J. W., et al., (In: Sigma and Phencyclidine-like Compounds as Molecular Probes in Biology, Ed. Domino, E. F., and Kamenka, J.-M., pp. 697-707 (1988), NPP Books, Ann Arbor, Mich.) can be employed. In this model, an NMDA injection into one cerebral hemisphere of a rat pup causes brain injury which resembles the lesion produced by hypoxia-ischemia. The ability of test compounds to limit the NMDA-induced lesion is a measure of their neuroprotective properties; and, since the compounds are administered intraperitoneally, the model also provides information about a compound's ability to cross the blood-brain barrier.
The experimental model of McDonald, J. W., et al., supra, was employed with the single alteration in protocol of an intraperitoneal injection of the test compound 15 minutes following, rather than preceding, the cerebral NMDA injection.

For a further experiment, the system named is sigma brain receptor. To be noted: Weber et al. 1986; U.S. Pat. No. 4,709,094; cited from earlier work.
The next experiment deals with Korsakoff's disease. To be noted: pretreatment; rat model; cited from earlier work.

Take `CCc1cccc(N(C)C(=N)Nc2cccc3ccccc23)c1` [Compound VII, N-(1-Naphthyl)-N'-(m-ethylphenyl)-N'-methylquanidine Hydrochloride]: in experiment [1], the “protection against the lesions caused by NMDA injection” value was “protect against the lesions caused by NMDA injection”.

For the compound `Cc1ccccc1NC(=N)Nc1ccccc1C` [DTG, 1,3 di-o-tolyl-guanidine], the “selectivity for the sigma receptor” value with sigma brain receptor is “strong selectivity for the sigma receptor”. As to `C[C@]12N[C@H](Cc3ccccc31)c1ccccc12` [MK-801, (+)-5-methyl-10,11-dihydro-5H-dibenzo[a,d]cycloheptene-5,10-imine], the “extent of cell loss, hemorrhages and amino acid changes” value in the experiment on Korsakoff's disease was “markedly attenuates the extent of cell loss, hemorrhages and amino acid changes”.
